Target: S. cerevisiae HSP90 (HSP82) (Saccharomyces cerevisiae, UniProt P02829)
Sequence (P02829 whole entry): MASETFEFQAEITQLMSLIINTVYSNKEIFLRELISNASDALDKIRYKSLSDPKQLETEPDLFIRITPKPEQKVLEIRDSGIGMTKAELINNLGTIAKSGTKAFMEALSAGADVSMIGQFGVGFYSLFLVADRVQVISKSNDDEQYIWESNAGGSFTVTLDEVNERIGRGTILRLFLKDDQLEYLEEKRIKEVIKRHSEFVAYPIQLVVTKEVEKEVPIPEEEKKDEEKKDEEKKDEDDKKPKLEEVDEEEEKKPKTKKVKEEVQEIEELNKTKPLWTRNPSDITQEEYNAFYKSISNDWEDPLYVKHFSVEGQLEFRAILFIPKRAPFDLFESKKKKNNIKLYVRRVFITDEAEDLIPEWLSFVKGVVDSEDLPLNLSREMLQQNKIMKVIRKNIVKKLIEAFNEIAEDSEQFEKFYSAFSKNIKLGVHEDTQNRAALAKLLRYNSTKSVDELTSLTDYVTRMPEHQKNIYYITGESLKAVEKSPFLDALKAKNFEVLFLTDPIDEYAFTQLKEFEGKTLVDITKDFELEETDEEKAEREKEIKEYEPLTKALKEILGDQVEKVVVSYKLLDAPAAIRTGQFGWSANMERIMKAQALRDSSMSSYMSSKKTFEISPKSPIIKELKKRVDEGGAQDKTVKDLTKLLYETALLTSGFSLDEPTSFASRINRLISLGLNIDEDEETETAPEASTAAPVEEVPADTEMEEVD

Nc1ncnc2c1ncn2[C@@H]1O[C@H](COP(=O)(O)OP(=O)(O)OP(=O)(O)O)[C@@H](O)[C@H]1O [ATP]
ATPase activity: assayed by measuring free phosphate release from ATP using the Malachite Green method
